Counter-ions that a name gives are not always drawn.

Results on 1 molecule are retold here after US6413980B1, “Nitrogen containing heterobicycles as factor Xa inhibitors” (Bristol-Myers Squibb Pharma Company, priority 1998, dated 2002).

In the case of `Cc1nn(-c2cccc(CN)c2)c2c1CCN(c1ccc(-c3ccccc3CN3CC[C@H](O)C3)cc1)C2` (as salt: trifluoroacetic acid salt) [Example 100, 1-[3-Aminomethylphenyl]-3-methyl-6-[(2′-N-((3-(S)-hydroxy)pyrrolidinyl)methyl-[1,1′]-biphen-4-yl)]-1,4,5,6-tetrahydro-7H-pyrazolo-[3,4-c]-pyridin-7-one bis-trifluoroacetic acid salt], the melting point (as a rule, the temperature of the solid-liquid transition) came out at 79.2 °C.
